Data reported in patent US20040048790A1, “Inducing cellular immune responses to p53 using peptide and nucleic acid compositions” (priority 1999, published 2004).
Non-standard residues stand in square brackets, D forms with d. Residues, ends and D or L forms follow the SMILES beside them. Abu = CC[C@H](N)C(=O)O

Key:
[1] = test system: target cells pulsed with wild-type peptide; test: CTL recognition of targets pulsed with the wildtype peptide (51Cr release); format: cell-based, human; conditions: Number of donors yielding a positive response/total tested; Table XXVIIb
[2] = test system: 0.221A2.1 cell line, peptide-loaded target; test: Primary in vitro CTL induction, 51Cr release against targets pulsed with the induction peptide; conditions: Number of donors yielding a positive response/total tested; Table XXVIIb
A*0202 = A*0202 (Homo sapiens, UniProt P04439, D140Y/D185E/D98H/E176V/E277Q/G131W/G231S/I119L/I121R/I166T/I218V/L180W/L300P/L318F/N151K/N90K/P208A/P217A/Q67R/Q86G/Q94H/R138H/R169H/T345S); test: biochemical
A*0203 = A*0203 (Homo sapiens, UniProt P04439, A173T/D140Y/D185E/D98H/E277Q/G131W/G231S/I119V/I121R/I166T/I218V/L180W/L300P/L318F/N151K/N90K/P208A/P217A/Q86G/Q94H/R138H/R169H/T345S); test: biochemical
A*0206 = A*0206 (Homo sapiens, UniProt P04439, D140Y/D185E/D98H/E176V/E277Q/F33Y/G131W/G231S/I119V/I121R/I166T/I218V/L300P/L318F/N151K/N90K/P208A/P217A/Q86G/Q94H/R138H/R169H/T345S); test: biochemical

Row | Structure (SMILES) | CTL Wild-type [1] | CTL Peptide [2] | IC50 (A*0202) [nM] | IC50 (A*0203) [nM] | IC50 (A*0206) [nM]
1 | CC[C@H](NC(=O)[C@H](Cc1ccccc1)NC(=O)[C@H](CCSC)NC(=O)[C@H](CCCCN)NC(=O)[C@H](CC(N)=O)NC(=O)[C@H](CC(C)C)NC(=O)[C@H](C)N)C(=O)N[C@@H](CCC(N)=O)C(=O)N[C@H](C(=O)O)C(C)C [p53.129B7V9] (H-ALNKMF[Abu]QV-OH) | 0/3 | 2/4 |  |  | 
2 | CC[C@H](NC(=O)[C@H](Cc1ccccc1)NC(=O)[C@H](CCSC)NC(=O)[C@@H](N)CCCCN)C(=O)N[C@@H](CCC(N)=O)C(=O)N[C@@H](CC(C)C)C(=O)N[C@@H](C)C(=O)N[C@@H](CCCCN)C(=O)N[C@H](C(=O)O)C(C)C [p53.132B4V9] (H-KMF[Abu]QLAKV-OH) | 0/4 | 5/5 | 13 | 9.1 | 37
